Test results as given in patent US11213031B2, “Tetrazolylpropyl derivatives and their use as fungicides” (BAYER AKTIENGESELLSCHAFT, priority 2017, dated 2022).
Where two headings read alike, the source gives them in different places.

Experiments:
Sphaerotheca fuliginea = assay: In vivo preventive test on Sphaerotheca fuliginea (powdery mildew on cucurbits); details: Podosphaera fuliginea, 192 h; 500 ppm of active ingredient; gherkin plants sprayed 24 hours before inoculation; evaluated 8 days after inoculation; read-out: efficacy
Description: (§1) Solvent: 5% by volume of Dimethyl sulfoxide • 10% by volume of Acetone
(§2) Emulsifier: 1 μl of Tween® 80 per mg of active ingredient
(§3) The active ingredients were made soluble and homogenized in a mixture of Dimethyl sulfoxide/Acetone/Tween® 80 and then diluted in water to the desired concentration.
The young plants of gherkin were treated by spraying the active ingredient prepared as described above. Control plants were treated only with an aqueous solution of Acetone/Dimethyl sulfoxide/Tween® 80.
After 24 hours, the plants were contaminated by spraying the leaves with an aqueous suspension of Sphaerotheca fuliginea spores. The contaminated gherkin plants were incubated for 8 days at 20° C. and at 70-80% relative humidity.
The test was evaluated 8 days after the inoculation. 0% means an efficacy which corresponds to that of the control plants while an efficacy of 100% means that no disease was observed.

Uromyces appendiculatus = assay: In vivo preventive test on Uromyces appendiculatus (bean rust); details: 264 h, 500 ppm of active ingredient, bean plants sprayed 24 hours before inoculation, evaluated 11 days after inoculation, read-out: efficacy
Description: as §1, §2, §3
The young plants of bean were treated by spraying the active ingredient prepared as described above. Control plants were treated only with an aqueous solution of Acetone/Dimethyl sulfoxide/Tween® 80.
After 24 hours, the plants were contaminated by spraying the leaves with an aqueous suspension of Uromyces appendiculatus spores. The contaminated bean plants were incubated for 24 hours at 20° C. and at 100% relative humidity and then for 10 days at 20° C. and at 70-80% relative humidity.
The test was evaluated 11 days after the inoculation. 0% means an efficacy which corresponds to that of the control plants while an efficacy of 100% means that no disease was observed.

[1] = Log P by HPLC on reversed phase columns (EEC directive 79/831 Annex V.A8); assay type: physicochemical
Description: Measurement of Log P values was performed according to EEC directive 79/831 Annex V.A8 by HPLC (High Performance Liquid Chromatography) on reversed phase columns with the following methods: • ^[a]Log P value is determined by measurement of LC-UV, in an acidic range, with 0.1% formic acid in water and acetonitrile as eluent (linear gradient from 10% acetonitrile to 95% acetonitrile). • ^[b]Log P value is determined by measurement of LC-UV, in a neutral range, with 0.001 molar ammonium acetate solution in water and acetonitrile as eluent (linear gradient from 10% acetonitrile to 95% acetonitrile). • ^[c]Log P value is determined by measurement of LC-UV, in an acidic range, with 0.1% phosphoric acid and acetonitrile as eluent (linear gradient from 10% acetonitrile to 95% acetonitrile).
If more than one Log P value is available within the same method, all the values are given and separated by “+”.
Calibration was done with straight-chain alkan2-ones (with 3 to 16 carbon atoms) with known Log P values (measurement of Log P values using retention times with linear interpolation between successive alkanones). Lambda-max-values were determined using UV-spectra from 200 nm to 400 nm and the peak values of the chromatographic signals.

Septoria tritici = assay: In vivo preventive test on Septoria tritici (leaf spot on wheat); details: Zymoseptoria tritici, 456 h; 500 ppm of active ingredient; wheat plants sprayed 24 hours before inoculation; evaluated 19 days after inoculation; read-out: efficacy
Description: as §1, §2, §3
The young plants of wheat were treated by spraying the active ingredient prepared as described above. Control plants were treated only with an aqueous solution of Acetone/Dimethyl sulfoxide/Tween® 80.
After 24 hours, the plants were contaminated by spraying the leaves with an aqueous suspension of Septoria tritici spores. The contaminated wheat plants were incubated for 72 hours at 17° C. and at 100% relative humidity and then for 15 days at 20° C. and at 90% relative humidity.
The test was evaluated 19 days after the inoculation. 0% means an efficacy which corresponds to that of the control plants while an efficacy of 100% means that no disease was observed.

[2] = method [a]: LC-UV, acidic range, 0.1% formic acid in water and acetonitrile as eluent

SMILES	LogP [1]	pest or weed control at 500 ppm (Sphaerotheca fuliginea)	pest or weed control at 500 ppm (Uromyces appendiculatus)	chromatographic logP [1, 2]	pest or weed control at 500 ppm (Septoria tritici)	also measured
CC(c1ccccc1F)C(O)(Cn1cnnn1)C1(Cl)CC1 (single isomer, unassigned) [Ia-20, 2-(1-chlorocyclopropyl)-3-(2-fluorophenyl)-1-(tetrazol-1-yl)butan-2-ol]		90 to 100%	90 to 100%	2.61		
CC(c1ccccc1F)C(O)(Cn1cnnn1)C1(Cl)CC1 (single isomer, unassigned) [Ia-22, 2-(1-chlorocyclopropyl)-3-(2-fluorophenyl)-1-(tetrazol-1-yl)butan-2-ol]					90 to 100%	LogP [1, 2]: 2.80^[a]
OC(Cc1ccccc1)(Cn1cnnn1)C1(Cl)CC1 (stereo not drawn) [Ia-01, 2-(1-chlorocyclopropyl)-1-phenyl-3-(tetrazol-1-yl)propan-2-ol]		90 to 100%	90 to 100%	2.41	70 to 79%	
OC(Cc1cccnc1Cl)(Cn1cnnn1)C1(Cl)CC1 (stereo not drawn) [Ia-03, 2-(1-chlorocyclopropyl)-1-(2-chloro-3-pyridyl)-3-(tetrazol-1-yl)propan-2-ol]		90 to 100%	90 to 100%	1.72	90 to 100%	chromatographic logP ([1]; method [b]: LC-UV, neutral range, 0.001 molar ammonium acetate solution in water and acetonitrile as eluent): 1.68
OC(Cc1ccccc1F)(Cn1cnnn1)C1(Cl)CC1 (stereo not drawn) [Ia-04, 2-(1-chlorocyclopropyl)-1-(2-fluorophenyl)-3-(tetrazol-1-yl)propan-2-ol]		90 to 100%	90 to 100%	2.46	90 to 100%	
OC(Cc1ccccc1Cl)(Cn1cnnn1)C1(Cl)CC1 (stereo not drawn) [Ia-05, 2-(1-chlorocyclopropyl)-1-(2-chlorophenyl)-3-(tetrazol-1-yl)propan-2-ol]		90 to 100%	90 to 100%	2.65	90 to 100%	
C=C(c1ccccc1F)C(O)(Cn1cnnn1)C1(Cl)CC1 (stereo not drawn) [Ia-en-02, 2-(1-chlorocyclopropyl)-3-(2-fluorophenyl)-1-(tetrazol-1-yl)but-3-en-2-ol]		90 to 100%	90 to 100%	2.46	90 to 100%	
OC(Cc1ccccc1F)(Cn1ncnn1)C1(Cl)CC1 (stereo not drawn) [Ib-02, 2-(1-chlorocyclopropyl)-1-(2-fluorophenyl)-3-(tetrazol-2-yl)propan-2-ol]		90 to 100%	90 to 100%	2.86	90 to 100%	
OC(Cc1cccnc1Cl)(Cn1ncnn1)C1(Cl)CC1 (stereo not drawn) [Ib-05, 2-(1-chlorocyclopropyl)-1-(2-chloro-3-pyridyl)-3-(tetrazol-2-yl)propan-2-ol]		90 to 100%	70 to 79%	2.03	90 to 100%	
OC(Cc1cc(F)c(F)cc1F)(Cn1ncnn1)C1(Cl)CC1 (stereo not drawn) [Ib-16]	3.09^[a]					
OC(Cc1ccc(F)cc1F)(Cn1ncnn1)C1(Cl)CC1 (stereo not drawn) [Ib-17]	2.96^[a]					
O=C(Cn1cnnn1)C1(Cl)CC1 [XVIa-01, 1-(1-chlorocyclopropyl)-2-(tetrazol-1-yl)ethanone]				0.99		
O=C(Cn1ncnn1)C1(Cl)CC1 [XVIb-01, 1-(1-chlorocyclopropyl)-2-(tetrazol-2-yl)ethanone]				1.3		

More lines, main results first:

LogP [1]	SMILES	pest or weed control at 500 ppm (Sphaerotheca fuliginea)	pest or weed control at 500 ppm (Uromyces appendiculatus)	chromatographic logP [1, 2]	pest or weed control at 500 ppm (Septoria tritici)	also measured
3.33^[a]	OC(Cc1ccc(F)c(Cl)c1)(Cn1ncnn1)C1(Cl)CC1 (stereo not drawn) [Ib-18]					
3.02^[a]	OC(Cc1c(F)ccc(F)c1F)(Cn1ncnn1)C1(Cl)CC1 (stereo not drawn) [Ib-19]					
2.86^[a]	COc1ccc(F)c(CC(O)(Cn2ncnn2)C2(Cl)CC2)c1F (stereo not drawn) [Ib-20]					
3.33^[a]	Cc1ccc(CC(O)(Cn2ncnn2)C2(Cl)CC2)c(F)c1F (stereo not drawn) [Ib-21]					
1.96^[b]	OC(Cc1ccncc1Cl)(Cn1ncnn1)C1(Cl)CC1 (stereo not drawn) [Ib-22]					
1.76^[a]	OC(Cc1cncc(F)c1)(Cn1ncnn1)C1(Cl)CC1 (stereo not drawn) [Ib-23]					
3.04^[a]	OC(Cc1ccc(F)c(F)c1)(Cn1ncnn1)C1(Cl)CC1 (stereo not drawn) [Ib-24]					
1.91^[a]	OC(Cc1cccnc1F)(Cn1ncnn1)C1(Cl)CC1 (stereo not drawn) [Ib-25]					
2.96^[a]	C=C(c1ccccc1F)C(O)(Cn1ncnn1)C1(Cl)CC1 (stereo not drawn) [Ib-en-01]					
0.79^[a]	CC1(C(=O)Cn2cnnn2)CC1 [XVIa-02]					
0.59^[a]	O=C(Cn1cnnn1)C1(F)CC1 [XVIa-03]					
1.05^[a]	CC1(C(=O)Cn2ncnn2)CC1 [XVIb-02]					
0.86^[a]	O=C(Cn1ncnn1)C1(F)CC1 [XVIb-03]					
